The results in this text go back to US7348347B2, “Substituted 4,5,6,7-tetrahydrobenzthiazol-2-ylamine compounds” (Gruenenthal GmbH, priority 2004, dated 2008).

Each structure is given as a SMILES string. Read-outs that look alike come from different tables or passages of the source.

For one assay, the target named is T1, NA transporter (Rattus norvegicus, UniProt Q63380).
T1 construct: from tissue; host or cells: rat brain synaptosomes (P2 fraction) from hypothalamus
As to the kind of experiment: Inhibition of noradrenaline uptake in rat brain synaptosomes. The note with it: for inhibition at 10 µM: read-out: % Inhibition of NA uptake [10 μM]. It is filed as biochemical. How it is done:
II. […] For in vitro studies, synaptosomes of rat brain areas are freshly isolated, as described in the article “The isolation of nerve endings from brain” by E. G. Gray and […]. Anatomy 96, pages 79-88, 1962. The relevant literature reference is enclosed herein by reference and is to be regarded as part of the disclosure. […] The homogenate is centrifuged at 4° C. for 10 minutes at 1000 g. […] The respective uptake was measured in a 96 well microtiter plate. The volume was 250 μL and the incubation was carried out at room temperature (ca 20-25° C.) under a blanket of oxygen. […] The 96 samples through were then filtered through a Unifilter GF/B® microtiter plate (Packard) and washed with 200 mL of incubated buffer with the aid of a “Brabdel Cell-Harvester MPXRI 96T”. The Unifilter GF/B plate was dried at 55° C. over a period of 1 h. The plate was then sealed with a back seal® (Packard) and there were then added 35 μL of scintillant fluid per well (Ultima Gold, Packard). Following sealing with a top seal® (Packard) and following adjustment of the equilibrium (approximately over a period of 5 h), the radioactivity is determined in a 1450 Microbeta® (Wallac). […] The amount of protein used in the above determination corresponded to the values known from the literature, such as is described in “Protein measurement with the folin phenol reagent”, Lowry et al., J. Biol. Chem., 193, 265-275, 1951. A detailed description of the method is disclosed in the literature, for example, in […], and B. […] The relevant literature references are incorporated herein by reference and are to be regarded as part of the disclosure.

Assay [1] deals with phenylquinone-induced writhing reactions in mice. As to the kind of experiment: Analgesic test using the phenylquinone-induced writhing test on mice. It is filed as in vivo, mouse. Conditions: male NMRI mice, phenylquinone i.p. How it is done: I. Analgesic Test Using the Writhing Test on Mice
The analysis of analgesic activity is carried out using the phenylquinone-induced writhing assay in mice, modified as described in the article by I. C. Hendershot and J. Forsaith ((1959) in J. Pharmacol. Exp. Ther. 125, 237-240. The relevant description is incorporated herein by reference and is to be regarded as part of the present disclosure.
For the present purpose, male NMRI mice are used having a weight of from 25 to 30 g. Groups of 10 animals per substance dose receive, 10 minutes after an intravenous dose of test substances, an intraperitoneal administration of 0.3 ml/mouse of a 0.02% strength aqueous solution of phenylquinone (phenylbenzoquinone, obtainable from Sigma, Deisenhofen; solution produced with the addition of 5% of ethanol and storage in a water bath at 45° C.). The animals are placed individually in observation cages. Using a pushbutton counter, the number of pain-induced stretching movements (so-called writhing reactions=straightening of the body accompanied by stretching of the rear extremities) was counted over a period of from 5 to 20 minutes following the administration of phenylquinone. The control is provided by animals receiving only physiological saline. All substances are tested using the standard dosage of 10 mg/kg. […]

A further assay deals with T2, 5-HT uptake (Rattus norvegicus, UniProt P31652).
T2 construct: from tissue; host or cells: rat brain synaptosomes (P2 fraction) from marrow (medulla) and pons
The experiment in a line: Inhibition of 5-HT uptake in rat brain synaptosomes. It is filed as biochemical. Conditions: [3H]-5-HT.

Setting [2] is: 10 μM, rat synaptosomes (hypothalamus), [3H]-NA.
Setting [3] is: rat synaptosomes (medulla and pons).

T2 sequence (P31652 whole entry): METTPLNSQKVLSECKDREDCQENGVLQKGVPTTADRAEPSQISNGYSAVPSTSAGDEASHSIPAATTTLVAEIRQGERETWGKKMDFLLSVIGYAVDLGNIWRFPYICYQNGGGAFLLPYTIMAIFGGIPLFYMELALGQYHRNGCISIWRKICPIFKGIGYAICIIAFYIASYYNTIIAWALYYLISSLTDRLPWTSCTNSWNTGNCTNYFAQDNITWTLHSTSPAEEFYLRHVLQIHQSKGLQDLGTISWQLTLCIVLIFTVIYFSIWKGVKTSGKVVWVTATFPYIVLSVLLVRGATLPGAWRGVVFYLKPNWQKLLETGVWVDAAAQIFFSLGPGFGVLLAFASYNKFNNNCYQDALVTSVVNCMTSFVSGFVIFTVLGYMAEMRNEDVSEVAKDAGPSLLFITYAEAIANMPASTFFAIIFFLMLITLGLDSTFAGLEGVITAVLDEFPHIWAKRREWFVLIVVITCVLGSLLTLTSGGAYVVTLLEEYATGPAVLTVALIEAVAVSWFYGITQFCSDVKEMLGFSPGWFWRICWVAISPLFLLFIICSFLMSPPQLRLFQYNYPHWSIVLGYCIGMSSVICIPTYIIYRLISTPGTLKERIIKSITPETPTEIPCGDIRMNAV
T1 sequence (Q63380 1-617): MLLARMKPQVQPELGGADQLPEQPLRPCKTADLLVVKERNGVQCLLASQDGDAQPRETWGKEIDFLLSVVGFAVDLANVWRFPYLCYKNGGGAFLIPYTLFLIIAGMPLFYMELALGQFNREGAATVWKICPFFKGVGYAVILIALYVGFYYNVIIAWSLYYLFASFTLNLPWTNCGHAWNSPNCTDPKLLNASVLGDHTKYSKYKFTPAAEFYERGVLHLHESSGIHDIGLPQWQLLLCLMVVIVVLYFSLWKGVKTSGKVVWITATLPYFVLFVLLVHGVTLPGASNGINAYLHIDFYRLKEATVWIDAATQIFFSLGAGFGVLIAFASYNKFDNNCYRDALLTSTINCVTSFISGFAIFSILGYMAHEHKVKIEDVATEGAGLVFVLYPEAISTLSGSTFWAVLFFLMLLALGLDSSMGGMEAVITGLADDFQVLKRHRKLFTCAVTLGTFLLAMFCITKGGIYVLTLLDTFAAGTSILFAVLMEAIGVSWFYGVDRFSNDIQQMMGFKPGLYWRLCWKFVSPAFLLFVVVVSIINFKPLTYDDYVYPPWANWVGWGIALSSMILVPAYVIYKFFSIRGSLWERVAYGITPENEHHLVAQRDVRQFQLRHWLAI

For the molecule `O=C(Nc1nc2c(s1)CCCC2C(=O)N1CCN(c2ccccc2)CC1)c1ccco1` (stereo not drawn) [Example 89, Furan-2-carboxylic acid[4-(4-phenylpiperazin-1-carbonyl)-4,5,6,7-tetrahydrobenzthiazol-2-yl]amide], the inhibition (usually the share of the control response that was lost under treatment) at 10 µM at NA transporter came to 77%. The “% Inhibition of writhing reactions at 10 mg/kg intravenous” value in assay [1] is recorded as 41%.
In the case of `CC=CC=CC(=O)Nc1nc2c(s1)CCCC2C(=O)NCC1CCN(Cc2c(F)cccc2Cl)C1` (stereo not drawn) [Example 61, 2-Hexa-2,4-dienoylamino-4,5,6,7-tetrahydrobenzthiazol-4-carboxylic acid[1-(2-chloro-6-fluorobenzyl)pyrrolidin-3-yl]methylamide], at NA transporter (setting [2]), the “% Inhibition of NA uptake [10 μM]” value worked out at 45%. Moreover, the “% Inhibition of 5-HT uptake [10 μM]” value on 5-HT uptake (setting [3]) stood at 46%.
As for `O=C(Cc1ccc(F)cc1)Nc1nc2c(s1)CCCC2C(=O)N1CCN(c2ccccc2Cl)CC1` (stereo not drawn) [Example 81, N-{4-[4-(2-Chlorophenyl)piperazin-1-carbonyl]-4,5,6,7-tetrahydrobenzthiazol-2-yl}-2-(4-fluorophenyl)acetamide], the inhibition at 10 µM on NA transporter (setting [2]) stood at 80%; at 5-HT uptake (setting [3]), 50%.
Taken in the same sequence, the figures for `O=C(COc1ccc(F)cc1)Nc1nc2c(s1)CCCC2C(=O)N1CCN(c2ccccc2)CC1` (stereo not drawn) [Example 21, 2-(4-Fluorophenoxy)-N-[4-(4-phenylpiperazin-1-carbonyl)-4,5,6,7-tetrahydrobenzthiazol-2-yl]acetamide] were 55% and 47%.
`CC(=O)c1ccc(N2CCN(C(=O)C3CCCc4sc(NC(=O)c5ccco5)nc43)CC2)cc1` (stereo not drawn) [Example 8, Furan-2-carboxylic acid{4-[4-(4-acetylphenyl)piperazin-1-carbonyl]-4,5,6,7-tetrahydrobenzthiazol-2-yl}amide]: the “% Inhibition of NA uptake [10 μM]” value at NA transporter (setting [2]) is 78%. Moreover, the “% Inhibition of 5-HT uptake [10 μM]” value on 5-HT uptake (setting [3]) was found to be 89%.
On to `O=C(CC1CCCCC1)Nc1nc2c(s1)CCCC2C(=O)NCC1CCN(Cc2c(F)cccc2Cl)C1` (stereo not drawn) [Example 78, 2-(2-Cyclohexylacetylamino)-4,5,6,7-tetrahydrobenzthiazol-4-carboxylic acid [1-(2-chloro-6-fluorobenzyl)pyrrolidin-3-yl]methylamide], for which the inhibition at 10 µM at NA transporter (setting [2]) came out at 41%; at 5-HT uptake (setting [3]), 54%.
`O=C(Nc1nc2c(s1)CCCC2C(=O)N1CCN(Cc2cc3ccccc3o2)CC1)c1ccoc1` (stereo not drawn) [Example 17, Furan-3-carboxylic acid[4-(4-benzofuran-2-ylmethylpiperazin-1-carbonyl)-4,5,6,7-tetrahydrobenzthiazol-2-yl]amide]: the “% Inhibition of NA uptake [10 μM]” value at NA transporter (setting [2]) came to 81%. Also, the “% Inhibition of 5-HT uptake [10 μM]” value on 5-HT uptake (setting [3]) stood at 72%.
Regarding `CC=CC=CC(=O)Nc1nc2c(s1)CCCC2C(=O)NCC1CCN(Cc2c(Cl)cccc2Cl)C1` (stereo not drawn) [Example 49, 2-Hexa-2,4-dienoylamino-4,5,6,7-tetrahydrobenzthiazol-4-carboxylic acid[1-(2,6-dichlorobenzyl)pyrrolidin-3-yl]methylamide], the “% Inhibition of NA uptake [10 μM]” value on NA transporter (setting [2]) stood at 44%. Moreover, on 5-HT uptake (setting [3]), the “% Inhibition of 5-HT uptake [10 μM]” value stood at 51%.
As for `CCCC(=O)Nc1nc2c(s1)CCCC2C(=O)NCC1CCN(Cc2ccc(-c3ccccc3)cc2)C1` (stereo not drawn) [Example 29, 2-Butyrylamino-4,5,6,7-tetrahydrobenzthiazol-4-carboxylic acid (1-biphenyl-4-ylmethylpyrrolidin-3-yl)methylamide], the inhibition at 10 µM on NA transporter (setting [2]) is 73%; against 5-HT uptake (setting [3]), 55%.
On to `CC(C(=O)Nc1nc2c(s1)CCCC2C(=O)N1CCN(C(C)C)CC1)c1ccccc1` (stereo not drawn) [Example 10, N-[4-(4-Isopropylpiperazin-1-carbonyl)-4,5,6,7-tetrahydrobenzthiazol-2-yl]-2-phenylpropionamide], for which the inhibition at 10 µM was 64% at NA transporter (setting [2]) and 42% against 5-HT uptake (setting [3]).
On to `CC(C)(C)CC(=O)Nc1nc2c(s1)CCCC2C(=O)N1CCN(CC=Cc2ccccc2)CC1` (stereo not drawn) [Example 87, 3,3-Dimethyl-N-{4-[4-(3-phenylallyl)piperazin-1-carbonyl]-4,5,6,7-tetrahydrobenzthiazol-2-yl}butyramide], for which the inhibition at 10 µM on NA transporter (setting [2]) is 46%; at 5-HT uptake (setting [3]), 56%.
On the same counts, the results for `CCOc1ccc(Br)cc1CN1CCC(NC(=O)C2CCCc3sc(NC(=O)c4ccco4)nc32)C1` (stereo not drawn) [Example 50, 2-[(Furan-2-carbonyl)amino]-4,5,6,7-tetrahydrobenzthiazol-4-carboxylic acid [1-(5-bromo-2-ethoxybenzyl)pyrrolidin-3-yl]amide] are 93% and 72%.
Turning to `O=C(Nc1nc2c(s1)CCCC2C(=O)N1CCN(CCc2ccccc2)CC1)c1ccoc1` (stereo not drawn) [Example 71, Furan-3-carboxylic acid[4-(4-phenethylpiperazin-1-carbonyl)-4,5,6,7-tetrahydrobenzthiazol-2-yl]amide], the “% Inhibition of NA uptake [10 μM]” value at NA transporter (setting [2]) amounted to 90%. Further, the “% Inhibition of 5-HT uptake [10 μM]” value at 5-HT uptake (setting [3]) turned out to be 66%.
On the same counts, the results for `O=C(Cc1cccs1)Nc1nc2c(s1)CCCC2C(=O)NCCN1CCCCCC1` (stereo not drawn) [Example 39, 2-(2-Thiophen-2-ylacetylamino)-4,5,6,7-tetrahydrobenzthiazol-4-carboxylic acid(2-azepan-1-ylethyl)amide] are 50% and 49%.
In the case of `COc1cc(OC)c(CN2CCC(NC(=O)C3CCCc4sc(NC(=O)c5ccco5)nc43)C2)c(OC)c1` (stereo not drawn) [Example 9, 2-[(Furan-2-carbonyl)amino]-4,5,6,7-tetrahydrobenzthiazol-4-carboxylic acid [1-(-2,4,6-trimethoxybenzyl)pyrrolidin-3-yl]amide], the inhibition at 10 µM on NA transporter (setting [2]) was found to be 98%; against 5-HT uptake (setting [3]) it was 53%.
Take `CCOc1ccccc1C(=O)Nc1nc2c(s1)CCCC2C(=O)N1CCN(CCc2ccccc2)CC1` (stereo not drawn) [Example 20, 2-Ethoxy-N-[4-(4-phenethylpiperazin-1-carbonyl)-4,5,6,7-tetrahydrobenzthiazol-2-yl]benzamide]: the results for the inhibition at 10 µM on NA transporter (setting [2]) and on 5-HT uptake (setting [3]) were 77% and 64%, respectively.
Take `CCCCCC(=O)Nc1nc2c(s1)CCCC2C(=O)NCCCN1CCCCC1C` (stereo not drawn) [Example 18, 2-Hexanylamino-4,5,6,7-tetrahydrobenzthiazol-4-carboxylic acid[3-(2-methylpiperidin-1-yl)propyl]amide]: the “% Inhibition of NA uptake [10 μM]” value on NA transporter (setting [2]) is on record as 43%. The “% Inhibition of 5-HT uptake [10 μM]” value on 5-HT uptake (setting [3]) worked out at 57%.
Turning to `CCCCCC(=O)Nc1nc2c(s1)CCCC2C(=O)N1CCN(Cc2c(OC)cc(OC)cc2OC)CC1` (stereo not drawn) [Example 34, Hexanoic acid{4-[4-(2,4,6-trimethoxybenzyl)piperazin-1-carbonyl]-4,5,6,7-tetrahydrobenzthiazol-2-yl}amide], the “% Inhibition of NA uptake [10 μM]” value on NA transporter (setting [2]) was 50%. In addition, the “% Inhibition of 5-HT uptake [10 μM]” value on 5-HT uptake (setting [3]) is 63%.
As to `CCOc1ccccc1CN1CCC(CNC(=O)C2CCCc3sc(NC(=O)Cc4cccs4)nc32)C1` (stereo not drawn) [Example 40], the “% Inhibition of NA uptake [10 μM]” value at NA transporter (setting [2]) turned out to be 47%. In addition, on 5-HT uptake (rat synaptosomes (and pons)), the “% Inhibition of 5-HT uptake [10 μM]” value was 48%.
On to `CC(C(=O)Nc1nc2c(s1)CCCC2C(=O)NCCCN(C)C)c1ccccc1` (stereo not drawn) [Example 3, 2-(2-Phenylpropionylamino)-4,5,6,7-tetrahydrobenzthiazol-4-carboxylic acid (3-dimethylaminopropyl)amide], for which the inhibition at 10 µM came out at 65% at NA transporter (setting [2]) and 61% on 5-HT uptake (setting [3]).
On the same counts, the results for `CC(C(=O)Nc1nc2c(s1)CCCC2C(=O)NCCC1CCCN1C)c1ccccc1` (stereo not drawn) [Example 22, 2-(2-Phenylpropionylamino)-4,5,6,7-tetrahydrobenzthiazol-4-carboxylic acid [2-(1-methylpyrrolidin-2-yl)ethyl]amide] are 60% and 44%.
